Source: publication PMC11999303 (iScience, 2025)
“Also recorded” adds a separate entry of the source.

The sequences below were run against I-A^b (Mus musculus, UniProt P14434+P14483) (assay: MHC2-SCALE peptide exchange with 2D-LCMS detection on I-A^b). Conditions: single peptide, lowmCLIP-I-A^b, standard exchange pH 5, 2D-LCMS.
I-A^b, sequence (P14434 whole entry, looked up): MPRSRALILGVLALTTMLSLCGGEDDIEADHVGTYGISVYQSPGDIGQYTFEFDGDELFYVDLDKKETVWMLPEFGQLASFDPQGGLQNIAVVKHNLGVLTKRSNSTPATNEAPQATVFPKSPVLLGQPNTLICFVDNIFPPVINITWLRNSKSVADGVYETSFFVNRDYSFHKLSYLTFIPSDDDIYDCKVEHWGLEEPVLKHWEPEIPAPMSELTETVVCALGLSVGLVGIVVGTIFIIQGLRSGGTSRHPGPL
I-A^b, sequence (P14483 whole entry, looked up): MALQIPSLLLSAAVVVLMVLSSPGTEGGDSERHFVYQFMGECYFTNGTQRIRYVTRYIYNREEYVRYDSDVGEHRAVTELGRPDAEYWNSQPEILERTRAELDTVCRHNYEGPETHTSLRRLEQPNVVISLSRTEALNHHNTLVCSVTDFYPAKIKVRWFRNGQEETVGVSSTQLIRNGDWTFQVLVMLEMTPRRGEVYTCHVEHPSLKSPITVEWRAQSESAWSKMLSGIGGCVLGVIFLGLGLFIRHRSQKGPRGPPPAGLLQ
Assay type: binding
For VIMSAHSLTNSSSDF [M57-B], the “peptide exchange / binding to I-A^b by MHC2-SCALE, in words” value (“peptide exchange / binding to I-A^b” below) was “binders”. For HYKYMCNSSCMGVMN [M112-A], the “peptide exchange / binding to I-A^b” value was “bound; also recorded: strong binder”. In the case of DRGVIMSAHSLTNSS [M57-A], the “peptide exchange / binding to I-A^b” value is reported as “binders”. With LPLQPFQLAFGHLVN [M46-A] the “peptide exchange / binding to I-A^b” value was “complete peptide exchange”. In the case of LQPFQLAFGHLVNRQV [M46-B], the “peptide exchange / binding to I-A^b” value is reported as “complete peptide exchange”.
